Results on 22 compounds are retold here after US9481654B2, “Compositions and methods for inhibition of the JAK pathway” (Rigel Pharmaceuticals, Inc., priority 2006, dated 2016).

Where a name gives a salt, the structure may show the parent alone.

Assay [1] deals with IL-4 stimulated CD23 upregulation in human Ramos B cells (JAK-1/JAK-3, Stat-6). Put plainly: Assay for Ramos B-Cell Line Stimulated with IL-4 (CD23 upregulation, FACS). It counts as cell-based. An outline of the steps: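 Flow cytometry of CD23 staining after 20-24 h IL-4 stimulation (50 units/mL final) of human Ramos B cells in RPMI with 5% serum. Cells, 5×10^4 per point, received compound or DMSO vehicle for 1 h at 37° C prior to stimulation.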

The subject of assay [2] is primary human T-cells (IL-2 induced proliferation, JAK-1/JAK-3, Stat-5). Put plainly: Primary Human T-Cell Proliferation Assay Stimulated with IL-2 (CellTiter-Glo). The conditions noted are these: Table III Example 4. In kind it is cell-based. As to the method: In this assay, primary human T-cells derived from peripheral blood and pre-activated through stimulation of the T-cell receptor and CD28, proliferate in culture in response to the cytokine Interleukin-2 (IL-2). This proliferative response is dependent on the activation of JAK1 and JAK3 tyrosine kinases, which phosphorylate and activate the transcription factor Stat-5. The primary human T-cells are incubated with the 2,4-pyrimidinediamine compounds in the presence of IL-2 for 72 hours, and at the assay endpoint intracellular ATP concentrations are measured to assess cell viability. A reduction in cell proliferation compared to control conditions is indicative of inhibition of the JAK kinase pathway.
Primary human T-cells derived from peripheral blood and pre-activated through stimulation of the T-cell receptor and CD28 proliferate in vitro in response to the cytokine Interleukin-2 (IL-2). This proliferative response is dependent on the activation of JAK-1 and JAK-3 tyrosine kinases, which phosphorylate and activate the transcription factor Stat-5.
Human primary T cells were prepared as follows. […] The lymphocytes at the serum: ficoll interface were recovered and washed twice with 5 volumes of PBS. […] The primary T-cells were stimulated for 3 to 4 days, then transferred to a fresh flask and maintained in RPMI with 10% FBS and 40 U/mL IL-2.
Primary T-cells were washed twice with PBS to remove the IL-2 and resuspended in Yssel's medium at 2×10^6 cells/mL. 50 μL of cell suspension containing 80 U/mL IL-2 was added to each well of a flat bottom 96 well black plate. For the unstimulated control, IL-2 was omitted from the last column on the plate. […] 50 μL of 2× compound was added per well in duplicate and the cells were allowed to proliferate for 72 hours at 37° C.
Proliferation was measured using CellTiter-Glo® Luminescent Cell Viability Assay (Promega), which determines the number of viable cells in culture based on quantitation of the ATP present, as an indicator of metabolically active cells. The substrate was thawed and allowed to come to room temperature. After mixing the Cell Titer-Glo reagent and diluent together, 100 μL was added to each well. The plates were mixed on an orbital shaker for two minutes to induce lysis and incubated at room temperature for an additional ten minutes to allow the signal to equilibrate.
Background: In ATP-based viability assays light output follows the ATP content of the culture.

A word on the IC50: it is the concentration that inhibits the measured activity by half. As for `CCS(=O)(=O)NCc1ccc(Nc2nc(Nc3ccc(C)c(S(N)(=O)=O)c3)ncc2F)cc1Cl` [Compound I-76, N2-(3-aminosulfonyl-4-methyl)phenyl-N4-(3-chloro-4-ethylsulfonylaminomethyl)phenyl-5-fluoro-2,4-pyrimidinediamine], the IC50 in assay [1] (Table III Example 3) came out at 169 nM; in assay [2] it was 463 nM.

On to `NS(=O)(=O)c1cc(Nc2ncc(F)c(Nc3ccc(CNS(=O)(=O)C4CC4)cc3)n2)cc(S(N)(=O)=O)c1` [Compound I-82, N4-(4-cyclopropylsulfonylaminomethyl)phenyl-N2-(3,5-diaminosulfonyl)phenyl-5-fluoro-2,4-pyrimidinediamine], for which the IC50 in assay [1] (Table III Example 3) was determined as 1100 nM; in assay [2], 964 nM.

As for `CS(=O)(=O)CS(=O)(=O)NCc1ccc(Nc2nc(Nc3ccc(S(N)(=O)=O)cc3)ncc2F)cc1` [Compound I-85, N2-(4-aminosulfonyl)phenyl-5-fluoro-N4-[4-(methylsulfonylmethylsulfonylamino)methyl]phenyl-2,4-pyrimidinediamine], the IC50 in assay [1] (Table III Example 3) amounted to 3100 nM; in assay [2], 3900 nM.

For the compound `CS(=O)(=O)CS(=O)(=O)NCc1ccc(Nc2nc(Nc3cccc(S(N)(=O)=O)c3)ncc2F)cc1` [Compound I-86, N2-(3-aminosulfonyl)phenyl-5-fluoro-N4-[4-(methylsulfonylmethylsulfonylamino)methyl]phenyl-2,4-pyrimidinediamine], the figures for the IC50 in assay [1] (Table III Example 3) and in assay [2] were 505 nM and 224 nM, respectively.

As for `Cc1ccc(Nc2ncc(F)c(Nc3ccc(CNS(=O)(=O)CS(C)(=O)=O)cc3)n2)cc1S(N)(=O)=O` [Compound I-87, N2-(3-aminosulfonyl-4-methyl)phenyl-5-fluoro-N4-[4-(methylsulfonylmethylsulfonylamino)methyl]phenyl-2,4-pyrimidinediamine], the half-inhibitory concentration (IC50) in assay [1] (Table III Example 3) was 251 nM; in assay [2], 309 nM.

With `NS(=O)(=O)c1ccc(Nc2ncc(F)c(Nc3ccc(CNS(=O)(=O)c4cccnc4)cc3)n2)cc1` [Compound I-89, N2-(4-aminosulfonyl)phenyl-5-fluoro-N4-[4-(pyrid-3-yl)sulfonylaminomethyl]phenyl-2,4-pyrimidinediamine], the figures for the IC50 in assay [1] (Table III Example 3) and in assay [2] were 448 nM and 1500 nM, respectively.

`Cc1cnc(Nc2ccc(S(N)(=O)=O)cc2)nc1Nc1ccc(CNS(=O)(=O)c2cccnc2)cc1` [Compound I-99, N2-(4-aminosulfonyl)phenyl-5-methyl-N4-[4-(pyrid-3-yl)sulfonylaminomethyl]phenyl-2,4-pyrimidinediamine]: the results for the IC50 in assay [1] (Table III Example 3) and in assay [2] were 565 nM and 954 nM, respectively.

For `Cc1ccc(Nc2ncc(F)c(Nc3cccc(CS(=O)(=O)NC4CCN(C)CC4)c3)n2)cc1S(N)(=O)=O` [Compound I-107, N2-(3-Aminosulfonyl-4-methylphenyl)-5-fluoro-N4-[3-(1-methylpiperdin-4-ylaminosulfonylmethylene)phenyl]-2,4-pyrimidinediamine], the figures for the IC50 in assay [1] (Table III Example 3) and in assay [2] were 2930 nM and 18100 nM, respectively.

As for `CN1CCC(NS(=O)(=O)Cc2cccc(Nc3nc(Nc4cccc(S(N)(=O)=O)c4)ncc3F)c2)CC1` [Compound I-108, N2-(3-Aminosulfonylphenyl)-5-fluoro-N4-[3-(1-methylpiperdin-4-ylaminosulfonylmethylene)phenyl]-2,4-pyrimidinediamine], the figures for the IC50 in assay [1] (Table III Example 3) and in assay [2] were 5160 nM and 25800 nM, respectively.

Take `Cc1cnc(Nc2cccc(S(=O)(=O)NC(=O)CN)c2)nc1Nc1cccc(CNS(=O)(=O)C2CC2)c1` [Compound I-133, N2-[3-N-(2-amino-1-oxoethyl)aminosulfonyl]phenyl-N4-(3-cyclopropylsulfonylaminomethyl)phenyl-5-methyl-2,4-pyrimidinediamine hydrogen chloride salt]: the concentration for half-maximal inhibition (IC50) in assay [1] (Table III Example 3) came to 715 nM; in assay [2], 1210 nM.

As to `Cc1cnc(Nc2cccc(S(=O)(=O)NC(=O)[C@@H](NC(=O)OCc3ccccc3)C(C)C)c2)nc1Nc1cccc(CNS(=O)(=O)C2CC2)c1` [Compound I-147, N2-[3-N-(Cbz-L-Val)aminosulfonyl]phenyl-N4-(3-cyclopropylsulfonylaminomethyl)phenyl-5-methyl-2,4-pyrimidinediamine sodium salt], the IC50 in assay [1] (Table III Example 3, sodium salt) is 13800 nM; in assay [2] it was 25100 nM.

Turning to `Cc1cnc(Nc2ccc(S(=O)(=O)Nc3ccccc3)cc2)nc1Nc1ccc(CNS(=O)(=O)C2CC2)cc1` [Compound I-149, N4-(4-cyclopropylsulfonylaminomethyl)phenyl-5-methyl-N2-(4-phenylaminosulfonyl)phenyl-2,4-pyrimidinediamine], the IC50 in assay [1] (Table III Example 3) amounted to 82.2 nM; in assay [2], 190 nM.

Take `Cc1cnc(Nc2ccc(S(=O)(=O)NC3CCN(C)CC3)cc2)nc1Nc1ccc(CNS(=O)(=O)C2CC2)cc1` [Compound I-151, N4-(4-cyclopropylsulfonylaminomethyl)phenyl-5-methyl-N2-[4-(1-methylpiperidin-4-yl)aminosulfonyl]phenyl-2,4-pyrimidinediamine]: the IC50 is 353 nM in assay [1] (Table III Example 3) and 1080 nM in assay [2].

`Cc1cnc(Nc2cccc(S(=O)(=O)NC3CCN(C)CC3)c2)nc1Nc1ccc(CNS(=O)(=O)C2CC2)cc1` [Compound I-152, N4-(4-cyclopropylsulfonylaminomethyl)phenyl-5-methyl-N2-[3-(1-methylpiperidin-4-yl)aminosulfonyl]phenyl-2,4-pyrimidinediamine]: the results for the IC50 in assay [1] (Table III Example 3) and in assay [2] were 166 nM and 717 nM, respectively.

For `Cc1cnc(Nc2ccc(S(=O)(=O)NCc3ccccc3)cc2)nc1Nc1ccc(CNS(=O)(=O)C2CC2)cc1` [Compound I-153, N2-(4-benzylaminosulfonyl)phenyl-N4-(4-cyclopropylsulfonylaminomethyl)phenyl-5-methyl-2,4-pyrimidinediamine], the IC50 is 80 nM in assay [1] (Table III Example 3) and 118 nM in assay [2].

As to `Cc1cnc(Nc2ccc(S(=O)(=O)Nc3ccccc3)cc2)nc1Nc1cccc(CNS(=O)(=O)C2CC2)c1` [Compound I-155, N4-(3-cyclopropylsulfonylaminomethyl)phenyl-5-methyl-N2-(4-phenylaminosulfonyl)phenyl-2,4-pyrimidinediamine], the IC50 turned out to be 250 nM in assay [1] (Table III Example 3) and 1430 nM in assay [2].

With `Cc1cnc(Nc2cccc(S(=O)(=O)Nc3ccccc3)c2)nc1Nc1cccc(CNS(=O)(=O)C2CC2)c1` [Compound I-156, N4-(3-cyclopropylsulfonylaminomethyl)phenyl-5-methyl-N2-(3-phenylaminosulfonyl)phenyl-2,4-pyrimidinediamine], the IC50 stood at 266 nM in assay [1] (Table III Example 3) and 1080 nM in assay [2].

Take `Cc1cnc(Nc2ccc(S(=O)(=O)NCc3ccccc3)cc2)nc1Nc1cccc(CNS(=O)(=O)C2CC2)c1` [Compound I-157, N2-(4-benzylaminosulfonyl)phenyl-N4-(3-cyclopropylsulfonylaminomethyl)phenyl-5-methyl-2,4-pyrimidinediamine]: the IC50 worked out at 250 nM in assay [1] (Table III Example 3) and 1100 nM in assay [2].

On to `Cc1cnc(Nc2cccc(S(=O)(=O)NCc3ccccc3)c2)nc1Nc1cccc(CNS(=O)(=O)C2CC2)c1` [Compound I-158, N2-(3-benzylaminosulfonyl)phenyl-N4-(3-cyclopropylsulfonylaminomethyl)phenyl-5-methyl-2,4-pyrimidinediamine], for which the IC50 stood at 300 nM in assay [1] (Table III Example 3) and 531 nM in assay [2].

With `Cc1cnc(Nc2ccc(S(=O)(=O)NC3CCN(C)CC3)cc2)nc1Nc1cccc(CNS(=O)(=O)C2CC2)c1` [Compound I-159, N4-(3-cyclopropylsulfonylaminomethyl)phenyl-5-methyl-N2-[4-(1-methylpiperidin-4-yl)aminosulfonyl]phenyl-2,4-pyrimidinediamine], the IC50 in assay [1] (Table III Example 3) came out at 539 nM; in assay [2], 7960 nM.

As to `Cc1cnc(Nc2cccc(S(=O)(=O)NC3CCN(C)CC3)c2)nc1Nc1cccc(CNS(=O)(=O)C2CC2)c1` [Compound I-160, N4-(3-cyclopropylsulfonylaminomethyl)phenyl-5-methyl-N2-[3-(1-methylpiperidin-4-yl)aminosulfonyl]phenyl-2,4-pyrimidinediamine], the figures for the IC50 in assay [1] (Table III Example 3) and in assay [2] were 242 nM and 3960 nM, respectively.

As to `Cc1cnc(Nc2ccc(S(=O)(=O)NCc3ccncc3)cc2)nc1Nc1ccc(CNS(=O)(=O)C2CC2)cc1` [Compound I-168, N4-(4-cyclopropylsulfonylaminomethyl)phenyl-5-methyl-N2-[4-(4-pyridylmethyl)aminosulfonyl]phenyl-2,4-pyrimidinediamine], the half-maximal inhibitory concentration (IC50) in assay [1] (Table III Example 3) was 278 nM; in assay [2] it was 347 nM.
